Structures are written as SMILES.

The series can be described thus: gradient 5% acetonitrile 3 min, to 50% in 2 min, to 85% in 15 min, held 3 min, 100 µL/min. As to conditions: column: Zorbax Extend-C18 2.1 x 50 mm; eluents: water / acetonitrile, 0.1% formic acid. An outline of the steps:
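Using water and acetonitrile that each contained 0.1% formic acid, mixtures of ~100 pure standards were separated at 100 μL/min on a Zorbax Extend-C18 column (2.1 × 50 mm, 1.8 μm). The HPLC fed a quadrupole time-of-flight mass spectrometer working in positive and negative ionization mode, with dead and dwell volumes of 40 μL and 900 μL. Data were acquired over 3 months. Retention time was read from computationally picked adduct peaks after manual inspection of each.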
In turn, `Cc1cc(C)c2c(N3CCSCC3)nc(C(=O)NC(C)c3ccccn3)nc2n1` (centres undefined) yielded an RP-LC retention time of 618 s. Then `Cc1ccc(NC(=O)Cn2ncc3c(c2=O)N(CC2CC2)C(=O)CS3)cc1F`, with 928 s.

`Cc1ccc(CNC(=O)c2ccc3c(c2)nc2n3CCN(C3CCCCC3)C2=O)cc1` displayed an RP-LC retention time of 839 s. `COc1cc(-c2nc3ncccn3c2Nc2cc(C)ccc2C)ccc1O` showed an RP-LC retention time of 672 s. In the case of `O=C(O)C1CN(C(=O)COc2ccccc2F)C1` it was 604 s; in that of `O=C(CSCc1ccccc1)Nc1ccc(CC(=O)NC2CC2)cc1`, 705 s. Then `Cc1ccc(-c2csc(-n3nc(C)c(CC(=O)Nc4c(C)cccc4C)c3C)n2)cc1`, with 1190 s; and `CCOC(=O)c1cn[nH]c1S(=O)(=O)N1CCN(c2ccccn2)CC1`, with 582 s; and `CCN1C(=O)Cc2ccccc2C1C(=O)N(C)Cc1ccco1` (centres undefined), with 732 s. In turn, `C[C@@]1(C(=O)Nc2ccc(F)nc2)CCCN1c1nc(Nc2cc(C3CC3)[nH]n2)c2cccn2n1` came in with an RP-LC retention time of 946 s.

Consider `O=C(Cn1c(Cc2ccccc2)nc2ccccc21)N1CCCCC1`, for which the RP-LC retention time is 667 s. Then `CC(=O)Nc1nsc(N2CCC(C(=O)NCc3ccc(F)cc3F)CC2)n1`, with 798 s; and `NC(=O)c1oc2ccccc2c1NC(=O)C1=COCCO1`, with 672 s; and `O=C(c1nnc(-c2csc(S(=O)(=O)N3CCN(c4ncccn4)CC3)c2)o1)N1CCCC1`, with 913 s.

Compound `O=C(NCC(c1ccsc1)N1CCc2ccccc2C1)c1cccs1` (centres undefined) came in with an RP-LC retention time of 569 s. Then `CC(=O)c1ccc(NC(=O)CCn2nc(C)nc2C)cc1`, with 557 s.

Compound `O=C(Cn1nc(C(=O)N2CCCC2)c2ccccc21)N1CCN(c2cccc(C(F)(F)F)c2)CC1` gave an RP-LC retention time of 983 s. Then `Cc1nn2c(CNS(=O)(=O)c3ccc(F)c(F)c3)c(-c3ccccc3)nc2s1`, with 906 s; and `CC1(C(=O)NC2CCCC2)CC(c2ccccc2)=NO1` (centres undefined), with 700 s. `O=C1NCCOCCN(C(=O)COc2ccccc2)[C@H]2CCC[C@@H]12`: the RP-LC retention time is 683 s.

`CCN(CC)c1nc2cc(C(=O)NCCC(C)C)ccc2c(=O)n1-c1ccccc1` had an RP-LC retention time of 1090 s. Then `CCOc1ccc(C(=O)N2CCN(c3cc(-c4cccs4)[nH]n3)CC2)cc1`, with 812 s; and `Cc1ccc(S(=O)(=O)N2CCC(CC(=O)NC(C)Cc3ccco3)CC2)cc1` (centres undefined), with 907 s. Regarding `CCc1nnc(-c2cccn2CC(=O)NCc2ccc3c(c2)OCO3)o1`, the RP-LC retention time amounted to 743 s. The compound `Cc1nc(N2CCOCC2)cc(N2CCN(C(=O)c3cnn(-c4ccccc4)n3)CC2)n1` came in with an RP-LC retention time of 587 s. In the case of `O=C(NCc1ccc2c(c1)N(C(=O)c1ccccc1)CC2)c1cccs1` it was 814 s; in that of `Fc1cccc(-c2noc(Cc3nnc(-c4cccc(Cl)c4)o3)n2)c1`, 1110 s. In the case of `CC(C)c1ccc(-c2noc(N3CCC(C(=O)N4CCN(C5CCCCC5)CC4)CC3)n2)cc1` it was 814 s.

As for `CCc1ccc(NC(=O)CSc2ccc(N3CCC(C(=O)NC(C)C)CC3)nn2)cc1`, the RP-LC retention time was determined as 680 s. In the case of `CCN1CCn2c(nc3cc(C(=O)NCc4ccc(OC(C)C)cc4)ccc32)C1=O` it was 726 s.

Regarding `CCOC(=O)CNC(=O)N1CCCC1c1ccc(Cl)cc1` (centres undefined), the RP-LC retention time worked out at 795 s.

The compound `CCc1nc(-c2csc(S(=O)(=O)N3CCCC(C(=O)Nc4ccc(C(C)C)cc4)C3)c2)no1` (centres undefined) came in with an RP-LC retention time of 1210 s. In the case of `CCN1C(=O)C2CC3(CCN(Cc4cn(C)c5ccc(OC)cc45)CC3)CN2C1=O` (centres undefined) it was 584 s; in that of `Cc1cccc(NC(=O)N2CCc3c(c(-c4nc(C5CC5)no4)nn3C)C2)c1`, 854 s. Then `CC(=O)c1ccc(NC(=O)C(C)Oc2cc(C(F)(F)F)c3c(C)nn(C)c3n2)cc1` (centres undefined), with 968 s. Then `C[C@]12CCC3=C4CCC(=O)C=C4CC[C@H]3[C@@H]1CC[C@@]2(O)CC#N`, with 796 s. The compound `CCC1Oc2ccc(S(=O)(=O)N3CCC(C(=O)Nc4ccc(F)cc4)CC3)cc2NC1=O` (centres undefined) gave an RP-LC retention time of 866 s. In turn, `CO[C@H]1C(=O)N(C(C)C)[C@H]1C1CCN(C(=O)c2ccsc2)CC1` came in with an RP-LC retention time of 693 s. Turning to `Cc1ccc(NC(=O)CSc2nc(N3CCCCC3)nc3ccccc23)c(Cl)c1`, the RP-LC retention time worked out at 901 s. Then `CN1c2cc(C(=O)N3CCN(c4ccc(F)cc4)CC3)ccc2C(=O)N2CCCCC21` (centres undefined), with 840 s. Turning to `Cc1ccc(CNC(=O)C2(C)CCCN(C(=O)Nc3cccc(Cl)c3)C2)cc1` (centres undefined), the RP-LC retention time worked out at 1040 s.

For `O=C(Cc1ccccc1)NCc1nc(-c2ccc3oc(-c4ccccc4)nc3c2)no1`, the RP-LC retention time was 997 s. Then `O=C(NCc1c[nH]c2ncccc12)C1CCC1`, with 558 s. Then `CC(=O)c1cn(CC(=O)NC(C)c2ccc3c(c2)OCCCO3)c2ccccc12` (centres undefined), with 794 s; and `CCOC(=O)c1ccc(NC(=O)C2=C(C)C(=O)OC23CCN(C(C)C)CC3)cc1`, with 657 s; and `O=C(c1ccc(Br)cc1)N1CCC(n2c(-c3ccoc3)nc3cccnc32)C1` (centres undefined), with 783 s. The compound `O=C(NCc1cccs1)C1CCCN(S(=O)(=O)c2cc(-c3noc(C4CCC4)n3)cs2)C1` (centres undefined) returned an RP-LC retention time of 1070 s.

Take `O=C(CCc1nc2ccccc2s1)N1C[C@H]2CNC(=O)[C@]23CCCC[C@@H]13`: the RP-LC retention time was determined as 705 s. With `CC(C)CNC(=O)Cn1c(C(C)C)nc2ccccc21`, the RP-LC retention time came to 601 s. Then `Cc1ccccc1CNC(=O)C1CCN(Cc2cn(C)c3ccc(Cl)cc23)CC1`, with 740 s. In the case of `O=C(NC(c1ccccc1)c1nnc(N2CCCC2)o1)c1ccc2c(c1)OCO2` (centres undefined), the RP-LC retention time turned out to be 777 s. Then `Cc1cc2c(c(=O)n(-c3ccccc3)c(=O)n2CC(=O)Nc2ccccc2F)n1C`, with 803 s; and `CCc1nc2cc(-c3noc(CCc4ccc(OC)cc4)n3)ccc2o1`, with 1130 s; and `O=C(Nc1ccncc1)c1cc([N+](=O)[O-])ccc1Cl`, with 638 s.

In the case of `COc1ccc2ncc(C(=O)c3ccc(C)cc3)c(N3CCN(C)CC3)c2c1`, the RP-LC retention time worked out at 582 s.

Compound `CN1C(=O)C(CC(=O)NC2CCCCC2)Sc2ncccc21` (centres undefined) gave an RP-LC retention time of 703 s. Then `Cc1cccc(NC(=O)Cn2cnc3nc(N4CCCC(C(=O)NC(C)C)C4)sc3c2=O)c1C` (centres undefined), with 712 s; and `Cc1cc(OCC(=O)Nc2cccc(Br)c2)nc(N2CCCC2)n1`, with 682 s. Then `COc1cc(C(=O)N2CCC(C(=O)NCCc3cscn3)CC2)cc(OC)c1OC`, with 631 s; and `COc1ccc(-c2nnc(-c3cccnc3N3CCN(C(=O)c4ccc(C#N)cc4)CC3)o2)cc1`, with 874 s; and `CC(C)CCNC(=O)C1(C)CN(S(=O)(=O)c2ccccc2)CC(=O)N1Cc1ccccc1` (centres undefined), with 973 s. As to `CCCCNc1c(C(=O)OC)c(=O)[nH]c2c(Cl)cccc12`, the RP-LC retention time is 783 s. Then `NC(=O)CSc1nnc(N2CCN(C(=O)c3cc4ccccc4o3)CC2)s1`, with 635 s. In the case of `O=C(Cn1nc2n(c1=O)CCCCC2)Nc1ccc(Br)cc1` it was 726 s.

Compound `Cc1sc(NC(=O)c2ccccc2Cl)nc1-c1ccc2c(c1)NC(=O)C(C)O2` (centres undefined) gave an RP-LC retention time of 914 s. In the case of `CC(=O)N1CCc2sc(S(=O)(=O)N3CCN(c4ccccc4F)CC3)cc2C1` it was 905 s.

In the case of `CC1CCc2nc3ncn(CC(=O)Nc4ccc(Cl)cc4F)c(=O)c3cc2C1` (centres undefined), the RP-LC retention time turned out to be 858 s. In the case of `Cc1cccc(NC(=O)N2CCCC2C(=O)NC2CC2)c1` (centres undefined) it was 655 s; in that of `O=S(=O)(c1cccc(-c2nnc(-c3ccc(Cl)cc3)o2)c1)N1CCOCC1`, 995 s; in that of `Cc1cc(C(=O)Nc2cccn3c(C4CCC4)nnc23)no1`, 724 s.

On to `CN(C)C(=O)c1n[nH]c2c1CN(C(=O)c1ccc(F)c(F)c1)CC2`, for which the RP-LC retention time came to 634 s. Then `Cn1cnc(S(=O)(=O)N2CCOc3ccc(CN4CCc5ccccc5C4)cc3C2)c1`, with 518 s. Turning to `COc1ccc(C(=O)N2CCC3(C2)C(=O)N(C)c2ccccc23)cc1OC` (centres undefined), the RP-LC retention time is 714 s. In turn, `CC(NC(=O)C1CCN(C(=O)c2ncn3c2COC(c2ccccc2)C3)CC1)c1ccccc1` (centres undefined) registered an RP-LC retention time of 754 s. In the case of `O=C(O)/C=C/C(=O)Nc1cccc2cccnc12` it was 751 s. In the case of `CCOc1ccccc1NC(=O)N1CCC2(CC1)NC(=O)c1cc(C)ccc1N2C` it was 872 s; in that of `CCOc1ccc(C2Cn3nnc(-c4nc(-c5ccccc5F)no4)c3CO2)cc1` (centres undefined), 1100 s; in that of `Cc1ccc(C(=O)c2cnc3cc4c(cc3c2N2CCOCC2)OCO4)cc1C`, 714 s.

`Nc1ccc2c(c1)nnn2-c1ccccc1` had an RP-LC retention time of 708 s.

For the origin of these results see the METLIN SMRT retention time set (Domingo-Almenara et al. 2019).
